Measurements taken from patent publication US20230090742A1, “AMINOPYRIMIDINYLAMINOBENZONITRILE DERIVATIVES AS NEK2 INHIBITORS” (Sumitomo Pharma Oncology, Inc., priority 2020, published 2023).

Legend:
[1] = target: T1, NEK2 kinase (Accession No. NP-002488) (Homo sapiens, UniProt P51955); assay: HotSpot Kinase Assay, NEK2; type: biochemical; settings: HotSpot Kinase Assay; read-out: NEK2 IC50
T1 construct: purchased ThermoFisher Scientific (Invitrogen)
T1 sequence (P51955 1-445): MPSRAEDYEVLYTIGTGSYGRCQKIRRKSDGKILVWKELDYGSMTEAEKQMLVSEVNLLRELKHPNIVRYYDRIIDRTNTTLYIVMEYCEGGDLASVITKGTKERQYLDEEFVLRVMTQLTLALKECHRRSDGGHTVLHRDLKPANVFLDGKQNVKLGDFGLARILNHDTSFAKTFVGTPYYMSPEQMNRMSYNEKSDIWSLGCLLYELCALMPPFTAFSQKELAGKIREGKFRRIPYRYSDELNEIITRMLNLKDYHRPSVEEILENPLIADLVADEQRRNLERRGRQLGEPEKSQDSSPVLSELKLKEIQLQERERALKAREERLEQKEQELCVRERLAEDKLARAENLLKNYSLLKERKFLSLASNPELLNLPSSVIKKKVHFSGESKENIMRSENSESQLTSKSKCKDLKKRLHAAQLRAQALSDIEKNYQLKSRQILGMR
Procedure: In this example, the compounds described herein were tested for their inhibitory activity against NEK2 and/or Aurora A using the HotSpot™ Kinase Assay (Reaction Biology Corp.). The assay was performed according to the manufacturer's protocol, as detailed below. The NEK2 kinase (Accession No. NP-002488) and Aurora A kinase (Accession No. NP-940839) for use in these assays was sourced from ThermoFisher Scientific (Invitrogen).
The base Reaction Buffer used in this experiment contained the following: 20 mM Hepes (pH 7.5), 10 mM MgCl2, 1 mM EGTA, 0.02% Brij™-35, 0.02 mg/ml BSA, 0.1 mM Na3VO4, 2 mM DTT, and 1% DMSO. The required cofactors were added individually to each kinase reaction.
Testing compounds were dissolved in 100% DMSO to a specific concentration. The serial dilution was conducted by Integra Viaflo Assist in DMSO.
The substrate was prepared in freshly prepared Reaction Buffer. The required cofactors were delivered to the substrate solution described above. NEK2 kinase or Aurora A kinase was delivered to the substrate solution and gently mixed. Next, the compounds in 100% DMSO were transferred to the kinase reaction mixture by Acoustic technology (Echo550; nanoliter range) and incubated for 20 min at room temperature. ^33P-ATP (Specific activity 10 μCi/μl) was delivered into the reaction mixture to initiate the reaction. The reaction was incubated for 2 hours at room temperature. Radioactivity was then detected by the filter-binding method. Kinase activity data were expressed as the percent remaining kinase activity in test samples compared to vehicle (dimethyl sulfoxide) reactions. IC50 values and curve fits were obtained using Prism (GraphPad Software).

NEK2 = target: T2, NEK2 (Homo sapiens, UniProt P51955); assay: NanoBRET Target Engagement Intracellular Kinase Assay for NEK2 in transfected HEK293 cells; type: cell-based; settings: NEK2 target engagement, read-out: NanoBRET IC50
T2 construct: expressed in transfected cells; host or cells: HEK293
T2 sequence (P51955 1-445): T1 sequence (P51955 1-445)
Procedure: In this example, the compounds described herein were tested for their inhibitory activity against NEK2 using a model of in vivo activity by the NanoBRET™ Target Engagement Intracellular Kinase Assay (Reaction Biology Corp.). The assay was performed according to the manufacturer's protocol, as detailed below.
HEK293 cells were cultivated (70-80% confluence) prior to the assay. The sample was trypsinized and HEK293 cells were collected.
To prepare lipid: DNA complexes, a 10 μg/ml solution of DNA in Opti-MEM without serum was prepared that consisted of the following ratios of carrier DNA and DNA encoding NanoLuc® fusion: 9.0 μg/ml of Transfection Carrier DNA, 1.0 μg/ml of NanoLuc fusion vector DNA and 1 ml of Opti-MEM without phenol red. The solution was mixed thoroughly. 30 μl of FuGENE HD Transfection Reagent was added into each milliliter of DNA mixture to form lipid: DNA complex. The sample was mixed by inversion 10 times and then incubated at ambient temperature for 20 minutes to allow complexes to form. In a sterile, conical tube, 1 part of lipid:DNA complex was mixed with 20 parts of HEK293 cells in suspension. The resulting sample was mixed gently by inversion 5 times. The cell and lipid: DNA complex was dispensed into a sterile tissue culture dish and incubated for 22-24 hours.
Each test compound is delivered from the compound source plate to the wells of 384-well white NBS plate by Echo 550.
Step 3. Preparation of Cells with NanoBRET™ Tracer K5 Reagent:
The medium was removed from the dish with the transfected HEK293 cells via aspiration, trypsinized and cells were allowed to dissociate from the dish. Trypsin was neutralized using medium containing serum and centrifuged at 200×g for 5 minutes to pellet the cells. The cell density was adjusted to 2×10^5 cells/ml in Opti-MEM without phenol red.
The Complete 20× NanoBRET™ Tracer K5 Reagent with Tracer Dilution Buffer was prepared according to the manufacturer's instructions. One part of Complete 20× NanoBRET™ Tracer Reagent was added to 20 parts of cells in the tube. The sample was mixed gently by inversion 10 times. Next, the cell suspension was dispensed into white, 384-well NBS plates with a final tracer K5 concentration of 2 μM. The plate was incubated at 37° C., 5% CO2 for 1 hour. A separate set of samples without tracer were prepared for background correction steps.
The plate was removed from the incubator and equilibrated to room temperature for 15 minutes. The 3× Complete Substrate plus Inhibitor Solution in Assay Medium (Opti-MEMR I Reduced Serum Medium, no phenol red) was prepared just before measuring BRET. The 3× Complete Substrate plus Inhibitor Solution was added to each well of the 384-well plate and incubated for 2-3 minutes at room temperature. The donor emission wavelength (460 nm) and acceptor emission wavelength (600 nm) were measured using the Envision 2104 plate reader.
To generate raw BRET ratio values, the acceptor emission value (600 nm) was divided by the donor emission value (460 nm) for each sample. To correct for background, the BRET ratio in the absence of tracer (average of no-tracer control samples) was subtracted from the BRET ratio of each sample.
BRET Ratio=[(Acceptor sample÷Donor sample)−(Acceptor no-tracer control÷Donor no-tracer control)]

Row | SMILES | IC50 [1] | IC50 (NEK2)
1 | N#Cc1c(Nc2nc(Nc3ccc(CN4CCOCC4)cc3)ncc2Cl)cccc1OCc1ccccc1F [Compound 1, 2-((5-chloro-2-((4-(morpholinomethyl)phenyl)amino)pyrimidin-4-yl)amino)-6-((2-fluorobenzyl)oxy)benzonitrile] | > 15 nM | ≤ 50 nM
2 | C[C@H](Oc1cccc(Nc2nc(Nc3ccc(N4CCN(C)CC4)cc3)ncc2Cl)c1C#N)c1ccccc1F [Compound 3, (S)-2-((5-chloro-2-((4-(4-methylpiperazin-1-yl)phenyl)amino)pyrimidin-4-yl)amino)-6-(1-(2-fluorophenyl)ethoxy)benzonitrile] | ≤ 5 nM | ≤ 50 nM
3 | C[C@@H](Oc1cccc(Nc2nc(Nc3ccc(N4CCN(C)CC4)cc3)ncc2Cl)c1C#N)c1ccccc1F [Compound 4, (R)-2-((5-chloro-2-((4-(4-methylpiperazin-1-yl)phenyl)amino)pyrimidin-4-yl)amino)-6-(1-(2-fluorophenyl)ethoxy)benzonitrile] | > 15 nM | > 150 nM
4 | N#Cc1c(Nc2nc(Nc3ccc(C(=O)N4CCNCC4)cc3)ncc2Cl)cccc1OCc1ccccc1F [Compound 6, 2-((5-chloro-2-((4-(piperazine-1-carbonyl)phenyl)amino)pyrimidin-4-yl)amino)-6-((2-fluorobenzyl)oxy)benzonitrile] | > 15 nM | > 150 nM
5 | COc1cc(N2CCNCC2)ccc1Nc1ncc(Cl)c(Nc2cccc(OCc3ccccc3F)c2C#N)n1 [Compound 7, 2-((5-chloro-2-((2-methoxy-4-(piperazin-1-yl)phenyl)amino)pyrimidin-4-yl)amino)-6-((2-fluorobenzyl)oxy)benzonitrile] | ≤ 5 nM | > 150 nM
6 | N#Cc1c(Nc2nc(Nc3ccc(N4CCNCC4)nc3)ncc2Cl)cccc1OCc1ccccc1F [Compound 8, 2-((5-chloro-2-((6-(piperazin-1-yl)73yridine-3-yl)amino)pyrimidin-4-yl)amino)-6-((2-fluorobenzyl)oxy)benzonitrile] | 5 to 15 nM | > 150 nM
7 | COc1cc(Nc2ncc(Cl)c(Nc3cccc(OCc4ccccc4F)c3C#N)n2)ccc1N1CCNCC1 [Compound 9, 2-((5-chloro-2-((3-methoxy-4-(piperazin-1-yl)phenyl)amino)pyrimidin-4-yl)amino)-6-((2-fluorobenzyl)oxy)benzonitrile] | ≤ 5 nM | ≤ 50 nM

Further lines, results first:

Row | IC50 [1] | IC50 (NEK2) | SMILES
8 | > 15 nM | > 150 nM | COc1ccccc1COc1cccc(Nc2nc(Nc3ccc(N4CCNCC4)cc3)ncc2Cl)c1C#N [Compound 11, 2-((5-chloro-2-((4-(piperazin-1-yl)phenyl)amino)pyrimidin-4-yl)amino)-6-((2-methoxybenzyl)oxy)benzonitrile]
9 | > 15 nM | > 150 nM | N#Cc1c(Nc2nc(Nc3ccc(N4CCNCC4)cc3)ncc2Cl)cccc1OCc1ccc(F)cc1 [Compound 13, 2-((5-chloro-2-((4-(piperazin-1-yl)phenyl)amino)pyrimidin-4-yl)amino)-6-((4-fluorobenzyl)oxy)benzonitrile]
10 | > 15 nM | > 150 nM | N#Cc1c(Nc2nc(Nc3ccc(N4CCNCC4)cc3)ncc2Cl)cccc1OCc1cccc(F)c1 [Compound 14, 2-((5-chloro-2-((4-(piperazin-1-yl)phenyl)amino)pyrimidin-4-yl)amino)-6-((3-fluorobenzyl)oxy)benzonitrile]
11 | 5 to 15 nM | > 150 nM | N#Cc1c(Nc2nc(Nc3ccc(CN4CCNCC4)cc3)ncc2Cl)cccc1OCc1ccccc1F [Compound 15, 2-((5-chloro-2-((4-(piperazin-1-ylmethyl)phenyl)amino)pyrimidin-4-yl)amino)-6-((2-fluorobenzyl)oxy)benzonitrile]
12 | ≤ 5 nM | 50 to 150 nM | N#Cc1c(Nc2nc(Nc3ccc(N4CCN(CCO)CC4)cc3)ncc2Cl)cccc1OCc1ccccc1F [Compound 17, 2-((5-chloro-2-((4-(4-(2-hydroxyethyl)piperazin-1-yl)phenyl)amino)pyrimidin-4-yl)amino)-6-((2-fluorobenzyl)oxy)benzonitrile]
13 | ≤ 5 nM | 50 to 150 nM | CN1CCN(c2ccc(Nc3ncc(Cl)c(Nc4cccc(OCc5ccccc5F)c4C#N)n3)cc2)CC1 [Compound 18, 2-((5-chloro-2-((4-(4-methylpiperazin-1-yl)phenyl)amino)pyrimidin-4-yl)amino)-6-((2-fluorobenzyl)oxy)benzonitrile]
14 | 5 to 15 nM | ≤ 50 nM | N#Cc1c(Nc2nc(Nc3ccc(N4CCNCC4)cc3)ncc2Cl)cccc1OCc1c(F)cccc1F [Compound 19, 2-((5-chloro-2-((4-(piperazin-1-yl)phenyl)amino)pyrimidin-4-yl)amino)-6-((2,6-difluorobenzyl)oxy)benzonitrile]
15 | ≤ 5 nM | 50 to 150 nM | N#Cc1c(Nc2nc(Nc3ccc(C4CCNCC4)cc3)ncc2Cl)cccc1OCc1ccccc1F [Compound 27, 2-((5-chloro-2-((4-(piperidin-4-yl)phenyl)amino)pyrimidin-4-yl)amino)-6-((2-fluorobenzyl)oxy)benzonitrile]
16 | 5 to 15 nM | > 150 nM | N#Cc1c(Nc2nc(Nc3cnn(C4CCNCC4)c3)ncc2Cl)cccc1OCc1ccccc1F [Compound 31, 2-((5-chloro-2-((1-(piperidin-4-yl)-1H-pyrazol-4-yl)amino)pyrimidin-4-yl)amino)-6-((2-fluorobenzyl)oxy)benzonitrile]
